Here are results for eight molecules from US12427212B2, “Nectin-4 binding miniproteins, conjugates and uses thereof” (Aktis Oncology, Inc., priority 2023, dated 2025).

The Ki is a measure of affinity in units of concentration, obtained from inhibition or displacement. The low end stands for a stronger hold on the target, the high end for a looser hold on the target.

Bridges are numbered along the chain shown (N, C = ends). [ ]: non-standard residue; d: D form. The star is where a group is joined. Biotin = O=C1N[C@H]2[C@H](CS[C@H]2CCCCC(=O)*)N1; Lys(Me3) = C[N+](C)(C)CCCC[C@H](N)C(=O)O; Arg(Me2s) = CN=C(NC)NCCC[C@H](N)C(=O)O; Cit = NC(=O)NCCC[C@H](N)C(=O)O; PEG4 = NCCOCCOCCOCCOCCC(=O)O

Experiment [1] deals with un-transfected HEK293 cells. Put plainly: Background binding to un-transfected HEK293 cells (cell microarray suitability). The experiment is classed as cell-based, human. The note with it: biotin-labeled molecules. Here is the method: To evaluate potential off-target binding, six biotin-labeled molecules were tested in a cell microarray platform having 6,416 different human proteins spanning diverse functions and subcellular locations.

Experiment [2] deals with Opossum kidney proximal tubule cells. Put plainly: Proximal tubule epithelial cell uptake assay. In kind it is cell-based. The note with it: Table 10A; mean percent uptake in opossum kidney cells, 1 h at 37° C., relative to control miniprotein C306. Here is the method: FIG. 8 is a bar graph of the percent uptake of exemplary miniproteins tested at 20 µM in a proximal tubule epithelial cell assay vs 20 μM control peptide set at 100%. […]
Opossum kidney proximal tubule cells were plated in the upper chamber of 24-well transwell plates containing 600 μL of growth media in the lower chamber and were incubated overnight at 37° C., in 5% CO2. The following day, the media was changed, and cells were incubated an additional 24 h with orbital shaking at 146 RPM. Next, cells were washed and treated in duplicates with biotinylated exemplary miniproteins pre-complexed with streptavidin-AF647 for 1 h at 37° C., and 5% C02 with continuous orbital shaking. Following incubation, cells were washed three times with 1×PBS and lysed with RIPA buffer containing protease and phosphatase inhibitor cocktail and a universal nuclease for 30 minutes. Uptake was measured on 100 μL of lysates using a fluorimeter. Mean % uptake values of control miniprotein C306 in the presence of exemplary miniproteins are provided in TABLE 10A and summarized in FIG. 8.
Uptake of engineered Nectin-4 miniproteins with further modified lysine residues (C298-C304, as described in Example 4B) was evaluated. Percent uptake of these exemplary Nectin-4-targeting miniproteins and C251 were determined against a control miniprotein, C306, using opossum kidney proximal tubule cells as described in Example 18A. Percent uptake of C298, which has an unmodified lysine (K) at amino acid position 26 (along the length of the miniprotein sequence. SEQ ID NO: 162), was 37% in the presence of […]. All other miniproteins having a modified lysine (modified with one or more small alkyl groups of monomethyl, dimethyl, trimethyl, or isopropyl group) had (i) kidney uptake similar to that of C251 and (ii) reduced uptake as compared to C298, which has an unmodified lysine at position 26.

Another experiment addresses T1, Nectin-4 (Homo sapiens, UniProt Q96NY8).
T1 sequence (Q96NY8 32-510): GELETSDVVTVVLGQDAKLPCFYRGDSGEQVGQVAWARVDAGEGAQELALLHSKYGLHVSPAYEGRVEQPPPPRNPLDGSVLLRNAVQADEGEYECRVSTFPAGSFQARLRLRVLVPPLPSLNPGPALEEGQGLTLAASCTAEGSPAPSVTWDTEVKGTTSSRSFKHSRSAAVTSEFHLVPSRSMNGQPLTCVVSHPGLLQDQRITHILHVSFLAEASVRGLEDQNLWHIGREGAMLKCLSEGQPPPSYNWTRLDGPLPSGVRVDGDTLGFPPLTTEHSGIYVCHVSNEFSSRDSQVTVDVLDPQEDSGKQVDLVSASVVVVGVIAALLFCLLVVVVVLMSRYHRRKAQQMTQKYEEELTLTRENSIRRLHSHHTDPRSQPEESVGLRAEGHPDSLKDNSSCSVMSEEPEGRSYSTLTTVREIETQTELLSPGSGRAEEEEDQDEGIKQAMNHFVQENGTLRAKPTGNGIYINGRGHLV
Put plainly: DELFIA competitive binding assay (Ki) against Eu-labeled C307 on HT-1376 cells. Here is the method:
A competition binding assay was utilized to determine the Ki for miniproteins bound to Nectin-4 expressed on the surface of cancer cells. […] Miniprotein incubations occurred for 90 min to reach binding equilibrium. […] After miniprotein incubations, the wells were washed to remove unbound ligand and treated according to manufacturer instructions for a DELFIA® (dissociation-enhanced lanthanide fluorescent immunoassay, Revvity Health Sciences). In brief, washed wells were incubated with 15 μL of 2 M HCl for 2 h at 37° C., after which 17 μL of 2 M NaOH and 30 μL of DELFIA® enhancement solution were added to each well and incubated for an additional 30 min. The remaining Eu reacted with the DELFIA® enhancer solution to generate fluorescence measured on the Envision instrument. Relative fluorescence units (RFUs) were measured as a function of test article concentration in order to calculate an IC50.
A whole cell binding assay was used to estimate the equilibrium binding affinity (KD) or binding inhibition constant (Ki) of miniprotein ligands to cells expressing a target of interest. Cells were dispensed into a 384-well plate and incubated at 37° C., in 5% CO2 overnight. The next day cells were gently washed once in assay buffer prior to addition of europium chelated ligand. […] For Ki determination, a single concentration (KD equivalent concentration) of europium-chelate miniprotein was added to each well followed immediately by the addition of unconjugated competing ligand over 12 different concentrations ranging from 100 times below and above expected Ki values as before. The plate was incubated for 1.5 h at room temperature to reach binding equilibrium. Cells were then washed three times at room temperature with 1×PBS followed by the addition of 2 M HCl and incubated for two h at 37° C. Following this step, 2 M NaOH and fluorescent inducer solution were added to each well and incubated for 30 minutes at room temperature according to the manufacturer's protocol (Perkin-ELMER DELFIA assay). Plates were read on an Envision plate reader and a curve-fitting model was applied to estimate KD and Ki values using GraphPad Prism software.
Engineered Nectin-4 miniproteins with further modified lysine residues (C298-C304; as described in Example 4B) were evaluated for their ability to bind to Nectin-4.

In the case of `CC[C@H](C)[C@@H]1NC(=O)[C@H](Cc2ccc(O)cc2)NC(=O)[C@H](CC(=O)O)NC(=O)[C@@H]2CSSC[C@@H](C(=O)N[C@@H](CO)C(=O)O)NC(=O)CNC(=O)[C@H](CC(C)C)NC(=O)[C@H](CC(N)=O)NC(=O)[C@H](CC(=O)O)NC(=O)[C@H](CC(C)C)NC(=O)[C@H]([C@@H](C)CC)NC(=O)[C@H](CCC(=O)O)NC(=O)[C@H](CCC(=O)O)NC(=O)[C@H]([C@@H](C)CC)NC(=O)[C@H](CSSC[C@H](NC(=O)CCOCCOCCOCCOCCNC(=O)CCCC[C@@H]3SC[C@@H]4NC(=O)N[C@@H]43)C(=O)N[C@@H](CCC(=O)O)C(=O)N[C@@H](Cc3ccc(O)cc3)C(=O)N[C@@H](CC(=O)O)C(=O)N[C@@H](CCC(=O)O)C(=O)N[C@@H](CCC(N)=O)C(=O)N[C@@H](Cc3ccccc3)C(=O)N[C@@H](Cc3ccccc3)C(=O)N[C@@H]([C@@H](C)O)C(=O)N[C@@H](C)C(=O)N[C@@H](CC(C)C)C(=O)N[C@@H](CCCCN)C(=O)N[C@@H](CCCNC(=N)N)C(=O)N[C@@H](CC(C)C)C(=O)N[C@@H](CCCNC(=N)N)C(=O)NCC(=O)N[C@@H](CC(=O)O)C(=O)N[C@@H](CC(=O)O)C(=O)N[C@@H]([C@@H](C)CC)C(=O)N2)NC(=O)[C@H](CC(C)C)NC(=O)CNC(=O)[C@@H]2CCCN2C(=O)[C@H](CC(C)C)NC(=O)[C@H](Cc2ccc(O)cc2)NC(=O)[C@H](CCC(N)=O)NC(=O)[C@H](Cc2ccccc2)NC(=O)[C@H](CO)NC(=O)[C@H](C)NC(=O)[C@H](CCC(N)=O)NC1=O` [Compound C197], the “Background binding to un-transfected HEK293 cells” value (shortened to “Background binding”) in experiment [1] is reported as “low-background binding”.

On to `CC[C@H](C)[C@@H]1NC(=O)[C@H](Cc2ccc(O)cc2)NC(=O)[C@H](CCC(=O)O)NC(=O)[C@@H]2CSSC[C@@H](C(=O)N[C@@H](CO)C(=O)O)NC(=O)CNC(=O)[C@H](CC(C)C)NC(=O)[C@H](CC(N)=O)NC(=O)[C@H](CC(=O)O)NC(=O)[C@H](CC(C)C)NC(=O)[C@H]([C@@H](C)CC)NC(=O)[C@H](CCC(=O)O)NC(=O)[C@H](CCC(=O)O)NC(=O)[C@H]([C@@H](C)CC)NC(=O)[C@H](CSSC[C@H](NC(=O)CCOCCOCCOCCOCCNC(=O)CCCC[C@@H]3SC[C@@H]4NC(=O)N[C@@H]43)C(=O)N[C@@H](CC(=O)O)C(=O)N[C@@H](Cc3ccc(O)cc3)C(=O)N[C@@H](CC(=O)O)C(=O)N[C@@H](CCC(=O)O)C(=O)N[C@@H](CCC(N)=O)C(=O)N[C@@H](Cc3ccccc3)C(=O)N[C@@H](Cc3ccccc3)C(=O)N[C@@H]([C@@H](C)O)C(=O)N[C@@H](C)C(=O)N[C@@H](CC(C)C)C(=O)N[C@@H](CCCCN)C(=O)N[C@@H](CCCNC(=N)N)C(=O)N[C@@H](CC(C)C)C(=O)N[C@@H](CCCNC(=N)N)C(=O)NCC(=O)N[C@@H](C)C(=O)N[C@@H](CC(=O)O)C(=O)N[C@@H]([C@@H](C)CC)C(=O)N2)NC(=O)[C@H](CCC(=O)O)NC(=O)CNC(=O)[C@@H]2CCCN2C(=O)[C@H](CC(C)C)NC(=O)[C@H](Cc2ccc(O)cc2)NC(=O)[C@H](CCC(N)=O)NC(=O)[C@H](Cc2ccccc2)NC(=O)[C@H](CO)NC(=O)[C@H](C)NC(=O)[C@H](CCC(N)=O)NC1=O` [Compound C208], for which the “Background binding” value in experiment [1] is “low-background binding”.

Consider `CC[C@H](C)[C@@H]1NC(=O)[C@H](Cc2ccc(O)cc2)NC(=O)[C@H](CCC(=O)O)NC(=O)[C@@H]2CSSC[C@@H](C(=O)N[C@@H](CO)C(=O)O)NC(=O)CNC(=O)[C@H](CC(C)C)NC(=O)[C@H](CC(N)=O)NC(=O)[C@H](CC(=O)O)NC(=O)[C@H](CC(C)C)NC(=O)[C@H]([C@@H](C)CC)NC(=O)[C@H](CCC(=O)O)NC(=O)[C@H](CCC(=O)O)NC(=O)[C@H]([C@@H](C)CC)NC(=O)[C@H](CSSC[C@H](NC(=O)CCOCCOCCOCCOCCNC(=O)CCCC[C@@H]3SC[C@@H]4NC(=O)N[C@@H]43)C(=O)N[C@@H](CC(=O)O)C(=O)N[C@@H](Cc3ccc(O)cc3)C(=O)N[C@@H](CC(=O)O)C(=O)N[C@@H](CCC(=O)O)C(=O)N[C@@H](CCC(N)=O)C(=O)N[C@@H](Cc3ccccc3)C(=O)N[C@@H](Cc3ccccc3)C(=O)N[C@@H]([C@@H](C)O)C(=O)N[C@@H](C)C(=O)N[C@@H](CC(C)C)C(=O)N[C@@H](C)C(=O)N[C@@H](CCCNC(=N)N)C(=O)N[C@@H](CC(C)C)C(=O)N[C@@H](CCCNC(=N)N)C(=O)NCC(=O)N[C@@H](C)C(=O)N[C@@H](CC(=O)O)C(=O)N[C@@H]([C@@H](C)CC)C(=O)N2)NC(=O)[C@H](CCC(=O)O)NC(=O)CNC(=O)[C@@H]2CCCN2C(=O)[C@H](CC(C)C)NC(=O)[C@H](Cc2ccc(O)cc2)NC(=O)[C@H](CCC(N)=O)NC(=O)[C@H](Cc2ccccc2)NC(=O)[C@H](CO)NC(=O)[C@H](C)NC(=O)[C@H](CCC(N)=O)NC1=O` [Compound C247], for which the “Background binding” value in experiment [1] is “low-background binding”.

As to “{Biotin-PEG4}-CDYDEQFFTALA[Cit]LRGGDICEYIQA[Lys(Me3)]FQYLPGLCIEEILDNLGCS-OH (disulfide 1-34, 20-44) [Compound C259]”, the “Background binding” value in experiment [1] was “low-background binding”.

Turning to “{Biotin-PEG4}-CDYDEQFFTALKRLRGGDICEYIQA[Lys(Me3)]FQYLPGECIEEILDNLGCS-OH (disulfide 1-34, 20-44) [Compound C255]”, the “% Uptake of C306 (Control)” value in experiment [2] is recorded as 14.1%. On Nectin-4, this molecule yielded an inhibition constant (Ki) of 0.66 nM.

In the case of “{Biotin-PEG4}-CEYDEEFFTALARLRGADICQYIQA[Lys(Me3)]FQYLPALCIEEILDNLGCS-OH (disulfide 1-34, 20-44) [Compound C252]”, the “% Uptake of C306 (Control)” value in experiment [2] worked out at 1.24%. Further, the Ki at Nectin-4 amounted to 0.76 nM.

With “{Biotin-PEG4}-CEYDEQFFTALARLRGADICEYIQARFQYLPGLCIEEILDNLGCS-OH (disulfide 1-34, 20-44) [Compound C280]”, the “% Uptake of C306 (Control)” value in experiment [2] is given as 1.56%. This molecule registered a Ki on Nectin-4 of 0.54 nM.

Regarding “{Biotin-PEG4}-CEYDEQFFTALARLRGGDICEYIQA[Arg(Me2s)]FQYLPGLCIEEILDNLGCS-OH (disulfide 1-34, 20-44) [Compound C267]”, the “% Uptake of C306 (Control)” value in experiment [2] is given as 0.800%. The same molecule registered a Ki at Nectin-4 of 0.76 nM.
